# Laboratory results published in US11512053B2, “Arginine methyltransferase inhibitors and uses thereof” (priority 2013, dated 2022).
# Where two headings read alike, the source gives them in different places.
# Target: T1, human CARM1 (PRMT4) (Flag- and His-tagged) (Homo sapiens, UniProt Q86X55)
# T1 construct: Flag-CARM1-His; made in house; host or cells: HEK 293F cells (BacMam baculovirus)
# T1 sequence (Q86X55 1-585 isoform Q86X55-1): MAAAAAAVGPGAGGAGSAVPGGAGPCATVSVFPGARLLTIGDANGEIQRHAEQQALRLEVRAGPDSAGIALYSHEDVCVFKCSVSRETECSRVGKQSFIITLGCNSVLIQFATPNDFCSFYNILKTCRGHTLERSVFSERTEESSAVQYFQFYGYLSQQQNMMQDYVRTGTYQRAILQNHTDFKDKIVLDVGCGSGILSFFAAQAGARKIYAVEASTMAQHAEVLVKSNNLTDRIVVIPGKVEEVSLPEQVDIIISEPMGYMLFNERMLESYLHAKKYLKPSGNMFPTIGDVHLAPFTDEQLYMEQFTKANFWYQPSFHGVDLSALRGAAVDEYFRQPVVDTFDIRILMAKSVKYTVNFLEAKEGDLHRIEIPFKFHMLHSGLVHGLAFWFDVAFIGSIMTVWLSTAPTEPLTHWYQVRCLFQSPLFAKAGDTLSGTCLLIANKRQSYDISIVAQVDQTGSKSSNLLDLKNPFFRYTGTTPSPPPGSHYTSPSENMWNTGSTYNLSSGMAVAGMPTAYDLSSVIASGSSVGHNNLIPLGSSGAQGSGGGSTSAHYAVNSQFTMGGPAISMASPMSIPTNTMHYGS
# Experiment: CARM1 Biochemical Assay (3H-SAM Flashplate, peptide substrate)
# Source text: General Materials. S-adenosylmethionine (SAM), S-adenosylhomocysteine (SAH), bicine, Tween20, dimethylsulfoxide (DMSO), bovine skin gelatin (BSG), sodium butyrate and Tris(2-carboxyethyl)phosphine hydrochloride solution (TCEP) were purchased from Sigma-Aldrich at the highest level of purity possible. ^3H-SAM was purchase from American Radiolabeled Chemicals with a specific activity of 80 Ci/mmol. 384-well streptavidin Flashplates were purchased from PerkinElmer.
# Substrates. Peptide representative of human histone H3 residues 16-30 was synthesized with an N-terminal linker-affinity tag motif and a C-terminal amide cap by 21st Century Biochemicals. The peptide was purified by high-performance liquid chromatography (HPLC) to greater than 95% purity and confirmed by liquid chromatography mass spectrometry (LC-MS). The sequence was Biot-Ahx-[…]-amide and contained a monomethylated arginine at position 26 (SEQ ID NO.:14).
# Molecular Biology: Human CARM1 (PRMT4) (NM_199141.1) transcript clone was amplified from an HEK 293 cDNA library, incorporating a flanking 5′ sequence encoding a FLAG tag ([…]) (SEQ ID NO.:6) fused directly to Ala 2 of CARM1 and 3′ sequence encoding a hexa His sequence ([…]) (SEQ ID NO.:15) fused directly to Ser 608. The gene sequence encoding isoform1 containing a deletion of amino acids 539-561 was amplified subsequently and subcloned into pFastBacMam (Viva Biotech).
# Protein Expression. Recombinant baculovirus were generated according to Bac-to-Bac kit instructions (Life Technologies). […] Infections were carried out at 37° C. for 48 hours, harvested by centrifugation, and stored at −80° C. for purification.
# Protein Purification. […] Column was washed with 500 mM NaCl in buffer A and Flag-CARM1-His was eluted with 200 ug/ml FLAG peptide in buffer A. Pooled fractions were dialyzed in 20 mM Tris, 150 mM NaCl, 5% glycerol and 1 mM DTT, pH 7.8. The purity of recovered protein was 94.
# General Procedure for CARM1 Enzyme Assays on Peptide Substrates. The assays were all performed in a buffer consisting of 20 mM Bicine (pH=7.6), 1 mM TCEP, 0.005% BSG, and 0.002% Tween 20, prepared on the day of use. Compounds in 100% DMSO (1 ul) were spotted into a polypropylene 384-well V-bottom plates (Greiner) using a Platemate Plus outfitted with a 384-channel head (Thermo Scientific). DMSO (1 ul) was added to Columns 11, 12, 23, 24, rows A-H for the maximum signal control and 1 ul of SAH, a known product and inhibitor of CARM1, was added to columns 11, 12, 23, 24, rows I-P for the minimum signal control. A cocktail (40 ul) containing the CARM1 enzyme was added by Multidrop Combi (Thermo-Fisher). The compounds were allowed to incubate with CARM1 for 30 min at room temperature, then a cocktail (10 ul) containing ^3H-SAM and peptide was added to initiate the reaction (final volume=51 ul). The final concentrations of the components were as follows: CARM1 was 0.25 nM, ^3H-SAM was 30 nM, peptide was 250 nM, SAH in the minimum signal control wells was 1 mM, and the DMSO concentration was 2%. The assays were stopped by the addition of non-radiolabeled SAM (10 ul) to a final concentration of 300 uM, which dilutes the ^3H-SAM to a level where its incorporation into the peptide substrate is no longer detectable. 50 ul of the reaction in the 384-well polypropylene plate was then transferred to a 384-well Flashplate and the biotinylated peptides were allowed to bind to the streptavidin surface for at least 1 hour before being washed once with 0.1% Tween20 in a Biotek ELx405 plate washer. The plates were then read in a PerkinElmer TopCount plate reader to measure the quantity of ^3H-labeled peptide bound to the Flashplate surface, measured as disintegrations per minute (dpm) or alternatively, referred to as counts per minute (cpm).
# Where dpm=disintegrations per minute, cmpd=signal in assay well, and min and max are the respective minimum and maximum signal controls. […]
structure (smiles),measurement,setting,value
CN(CCN)Cc1c[nH]nc1CCc1ccccc1 [Compound 9],IC50,,1.01 to 3 µM
same,IC50,single experiment or average of multiple experiments,3 µM
